Source: patent US20050049197A1, “Induction of immune response against desired determinants” (Epimmune Inc., priority 1993, published 2005)

Assays:
[1] = system: PBMC from normal individuals; test: In vitro T cell proliferative responses of human PBMC ([3H]thymidine incorporation); type: cell-based; details: for AVERAGE S.I. / AVERAGE ΔMAX CPM: average of 5 donors; for X144 (Δmax cpm) / X144 S.I.: donor X144; for X162 (Δmax cpm) / X162 S.I.: donor X162; for X349 (Δmax cpm) / X349 S.I.: donor X349; for X372 (Δmax cpm) / X372 S.I.: donor X372; for X460 (Δmax cpm) / X460 S.I.: donor X460
DR5 = system: DR5; set-up: species or system human; details: read-out: Binding Activity DR5, IC50
DR2w2b = system: DR2w2b; set-up: species or system human; details: read-out: Binding Activity DR2wB2, IC50
DR4w4 = DR4w4 (Homo sapiens, UniProt P01903+P01911, A100K/A169T/F76Y/I96L/K127E/L162R/M171V/N62H/P40V/Q125Y/R42H/S133A/S149N/S66Y/V115G/V209L/W38E); test: biochemical; type: binding
DQ3.1 = system: DQ3.1; set-up: species or system human; details: read-out: Binding Activity DQ3.1, IC50
DR1 = DR1 (Homo sapiens, UniProt P01903+P01911, A100R/D57E/F55L/F60I/F76Y/I96L/L162R/M171V/P40L/Q125E/R42F/V115G/Y59C); test: biochemical; type: binding
[2] = system: air-dried P. yoelii sporozoites; details: in vivo
[3] = system: P. falciparum sporozoites; test: Inhibition of liver stage development assay (ILSDA), human hepatocytes infected with P. falciparum sporozoites; type: cell-based; details: sera of C57BL/6 mice immunized with peptide in CFA/IFA, final dilution 1:100
Procedure: (§1) In certain experiments, peptides were emulsified in complete Freund's adjuvant (CFA) and injected subcutaneously (S.C.) at the base of the tail in 100 μl volume containing 100 μg of peptide. Mice were boosted with 100 μg of peptide emulsified in 100 μl of incomplete Freund's adjuvant (IFA) 1 month later. Mice were bled just prior to boosting, and 2 weeks after boosting.
Human hepatocytes were isolated from nontransplantable liver tissue donated for research. […] The hepatocytes were allowed to attach and spread overnight with the media being changed the following day.
(§2) The 17XNL (nonlethal) strain of P. yoelii or the NF54 strain of P. falciparum were used for murine and human hepatocyte in vitro infections, respectively.
(§3) Briefly, 25 μl of the serum samples, diluted to 2× their final concentration, were added to triplicate chamber-slide wells. P. yoeilli or P. falciparum sporozoites, 75,000/well, were then added in a volume of 25 μl to the mouse or human hepatocyte cultures respectively. The cultures were incubated for 3 h, then washed extensively with fresh medium to remove unattached sporozoites. The infected hepatocytes were then incubated for a further 2 (P. yoelii) or 5 days (P. falciparum) with the medium being changed each day of culture. The slides were fixed and immunostained with either a P. yoelii- or P. falciparum-specific monoclonal antibody. Schizonts were counted from the triplicate cultures and the percent inhibition determined as follows: control−test/control×100. Sera from mice injected with CFA (first dose) and IFA (second and third doses) served as the negative controls.

P. yoelii sporozoites = test: Inhibition of liver stage development assay (ILSDA), mouse hepatocytes infected with P. yoelii sporozoites; type: cell-based; details: sera of immunized mice, mouse hepatocytes
Procedure: as §1
All cell culture reagents were obtained from quality Biological, Gaithersburg, Md. The slides were incubated overnight at 37° C. in a 5% CO2/95% air environment. The medium was changed the following day and fresh medium containing dexamethasone (7×10^−5) was added to the cultures.
as §2, §3

[4] = system: P. yoelii 17XNL sporozoites; details: in vivo
DR3 = system: DR3; set-up: species or system human; details: read-out: Binding Activity DR3, IC50
DRw53 = DRw53 (Homo sapiens, UniProt P01903+P13762); test: biochemical; type: binding
IAk = IAk (Mus musculus, UniProt P01910+P06343); test: biochemical

| Compound | AVERAGE S.I. ([1]; 2nd Stimulation) | AVERAGE ΔMAX CPM ([1]; 2nd Stimulation) [cpm] | X144 (Δmax cpm) ([1]; 2nd Stimulation) [cpm] | X144 S.I. ([1]; 2nd Stimulation) | X162 (Δmax cpm) ([1]; 2nd Stimulation) [cpm] | X162 S.I. ([1]; 2nd Stimulation) | X349 (Δmax cpm) ([1]; 2nd Stimulation) [cpm] | X349 S.I. ([1]; 2nd Stimulation) | X372 (Δmax cpm) ([1]; 2nd Stimulation) [cpm] | X372 S.I. ([1]; 2nd Stimulation) | X460 (Δmax cpm) ([1]; 2nd Stimulation) [cpm] | X460 S.I. ([1]; 2nd Stimulation) | AVERAGE S.I. ([1]; 3rd Stimulation) | AVERAGE ΔMAX CPM ([1]; 3rd Stimulation) [cpm] | X144 (Δmax cpm) ([1]; 3rd Stimulation) [cpm] | X144 S.I. ([1]; 3rd Stimulation) | X162 (Δmax cpm) ([1]; 3rd Stimulation) [cpm] | X162 S.I. ([1]; 3rd Stimulation) | X349 (Δmax cpm) ([1]; 3rd Stimulation) [cpm] | X349 S.I. ([1]; 3rd Stimulation) | also measured |
| --- | --- | --- | --- | --- | --- | --- | --- | --- | --- | --- | --- | --- | --- | --- | --- | --- | --- | --- | --- | --- | --- |
| CC(C)C[C@H](NC(=O)[C@@H](NC(=O)[C@H](Cc1c[nH]c2ccccc12)NC(=O)[C@H](C)NC(=O)[C@H](C)NC(=O)[C@@H](NC(=O)[C@H](CC1CCCCC1)NC(=O)[C@H](CCCCN)NC(=O)[C@@H](C)N)C(C)C)[C@@H](C)O)C(=O)N[C@@H](CCCCN)C(=O)N[C@@H](C)C(=O)N[C@@H](C)C(=O)N[C@H](C)C(N)=O [965.10] | 3.9 | 25767 | 11663 | 1.8 | 20693 | 7.9 | 22133 | 3.5 | 44414 | 3.2 | 29933 | 3.3 | 11.5 | 31002 | 33159 | 14 | 34548 | 11 | 38931 | 3.5 | X372 (Δmax cpm) ([1]; 3rd Stimulation): 36995 cpm; X372 S.I. ([1]; 3rd Stimulation): 15; X460 (Δmax cpm) ([1]; 3rd Stimulation): 11376 cpm; X460 S.I. ([1]; 3rd Stimulation): 15; IC50 (DR5): 11.1 nM; IC50 (DR2w2b): 5.6 nM; IC50 (DR4w4): 2.8 nM; IC50 (DQ3.1): 25 nM; IC50 (DR1): 1.2 nM |
| G(QGPGAP)4 [PyB] | – | – | – | – | – | – | – | – | – | – | – | – | – | – | – | – | – | – | – | – | levels of antibodies against sporozoites and the PyCSP (immunogenicity, in words) [2]: poorly immunogenic; Mean schizonts/well ± S.D. [3]: 70 ± 14 schizonts/well; % Inhibition (P. yoelii sporozoites; dilution 1:100): 50%; Mean schizonts/well + S.D. (P. yoelii sporozoites; dilution 1:100): 41 + 3.8 schizonts/well; % Inhibition (P. yoelii sporozoites; dilution 1:200): 43.2%; Mean schizonts/well + S.D. (P. yoelii sporozoites; dilution 1:200): 46 + 4 schizonts/well; % Protected [4]: 12.5%; Infected/challenged [4]: 7/8 |
| CC(C)C[C@H](NC(=O)[C@@H](NC(=O)[C@H](CCCCN)NC(=O)[C@H](C)NC(=O)[C@H](C)NC(=O)[C@@H](NC(=O)[C@H](CC1CCCCC1)NC(=O)[C@H](CCCCN)NC(=O)[C@@H](C)N)C(C)C)[C@@H](C)O)C(=O)N[C@@H](CCCCN)C(=O)N[C@@H](C)C(=O)N[C@@H](C)C(=O)N[C@H](C)C(N)=O [965.14] | 1.5 | 5523 | 3570 | 1.1 | 4655 | 2.1 | 4421 | 1.3 | 10608 | 1.4 | 4365 | 1.4 | 2 | 10583 | 4319 | 2.3 | 10734 | 1.7 | 17849 | 2 | X372 (Δmax cpm) ([1]; 3rd Stimulation): 19140 cpm; X372 S.I. ([1]; 3rd Stimulation): 2.1; X460 (Δmax cpm) ([1]; 3rd Stimulation): 874 cpm; X460 S.I. ([1]; 3rd Stimulation): 2; IC50 (DR5): 3.4 nM; IC50 (DR2w2b): 8 nM; IC50 (DR4w4): 7.4 nM; IC50 (DQ3.1): > 10000 nM; IC50 (DR3): 781 nM; IC50 (DRw53): 52.8 nM |
| CC[C@H](C)[C@H](NC(=O)CNC(=O)[C@H](Cc1ccc(O)cc1)NC(=O)[C@H](CC(=O)O)NC(=O)[C@@H](NC(=O)[C@H](CO)NC(=O)CNC(=O)[C@H](CC(=O)O)NC(=O)[C@@H](NC(=O)[C@H](CC(N)=O)NC(=O)[C@@H](N)Cc1ccc(O)cc1)[C@@H](C)O)[C@@H](C)O)C(=O)N[C@@H](CC(C)C)C(=O)N[C@@H](CCC(N)=O)C(=O)N[C@H](C(=O)N[C@@H](CC(N)=O)C(=O)N[C@@H](CO)C(=O)N[C@@H](CCCNC(=N)N)C(=O)O)[C@@H](C)CC [HEL 46-61] | – | – | – | – | – | – | – | – | – | – | – | – | – | – | – | – | – | – | – | – | IC50 (IAk): 20 nM |
